Reference: article PMC11237654, “Optimization of quenched fluorescent peptide substrates of SARS-CoV-2 3CL^pro main protease (Mpro) from proteomic identification of P6—P6' active site specificity” (Journal of Virology, 2024)
Several values for one entry are separate records, joined by “and”; a condition that tells them apart may be missing. Equal entries are not always repeated.

Target: T1, SARS-CoV-2 3CL^pro (Severe acute respiratory syndrome coronavirus 2, UniProt P0DTD1, Q3569A)
Conditions: not given

Substance	^app(kcat/KM)	cleavage at second (test) site with P1' X
AAVALM↓SAHHYAYR [P1-Met]	37 M⁻¹ s⁻¹	–
AAVALQ↓XAHHYAYR [S]	1,528 M^−1s^−1	–
AAVALX↓SAHHYAYR [P1-His]	222 M⁻¹ s⁻¹	–
VALQ↓GAHRVALQ↓XAHYR [Leu]	–	minimal cleavage

Same assay, conditions: pH 6.9

Substance	^app(kcat/KM)
AAVALQ↓XAHHYAYR [listing 1 of 7 here]	1,522.0 ± 7.6 M^−1s^−1
AAVALQ↓XAHHYAYR [listing 2 of 7 here]	45.0 ± 0.6 M⁻¹ s⁻¹
AAVALQ↓XAHHYAYR [listing 3 of 7 here]	No cleavage
AAVALQ↓XAHHYAYR [listing 4 of 7 here]	No cleavage
AAVALQ↓XAHHYAYR [listing 5 of 7 here]	No cleavage
AAVALQ↓XAHHYAYR [listing 6 of 7 here]	No cleavage
AAVALQ↓XAHHYAYR [listing 7 of 7 here]	No cleavage
AAVALQ↓XAHHYAYR [C]	No cleavage
AAVALQ↓XAHHYAYR [D]	No cleavage
AAVALQ↓XAHHYAYR [E]	No cleavage
AAVALQ↓XAHHYAYR [G]	1,079.1 ± 12.6 M^−1s^−1
AAVALQ↓XAHHYAYR [I]	No cleavage
AAVALQ↓XAHHYAYR [K]	No cleavage
AAVALQ↓XAHHYAYR [M]	65.8 ± 1.4 M⁻¹ s⁻¹
AAVALQ↓XAHHYAYR [N]	71.8 ± 3.2 M⁻¹ s⁻¹
AAVALQ↓XAHHYAYR [P]	No cleavage
AAVALQ↓XAHHYAYR [S]	1,519.1 ± 6.2 M^−1s^−1
AAVALQ↓XAHHYAYR [T]	No cleavage
AAVALQ↓XAHHYAYR [W]	No cleavage

Target: T1, SARS-CoV-2 3CL^pro
Conditions: pH 6.9

Substance	^app(kcat/KM) [M⁻¹ s⁻¹]
AAVALM↓SAHHYAYR [P1-Met]	37

Target: T1, SARS-CoV-2 3CL^pro
Conditions: not given
Remark: another data set of the same source

Substance	kcat/KM
Mca-RVALQ↓XAHYK(Dnp)RR [QFS1-A1']	13,131.0 M^−1·s^−1 and 13,131.0 ± 207
Mca-RVALQ↓XAHYK(Dnp)RR [QFS1-G1']	4,515.7 M^−1·s^−1 and 4,515.7 ± 248
Mca-RVALQ↓XAHYK(Dnp)RR [QFS1-S1']	13,696.8 M^−1·s^−1 and 13,696.8 ± 269
